The target in data set [1] is T1, hOATP2B1 (Homo sapiens, UniProt O94956).
T1 sequence (O94956 1-709): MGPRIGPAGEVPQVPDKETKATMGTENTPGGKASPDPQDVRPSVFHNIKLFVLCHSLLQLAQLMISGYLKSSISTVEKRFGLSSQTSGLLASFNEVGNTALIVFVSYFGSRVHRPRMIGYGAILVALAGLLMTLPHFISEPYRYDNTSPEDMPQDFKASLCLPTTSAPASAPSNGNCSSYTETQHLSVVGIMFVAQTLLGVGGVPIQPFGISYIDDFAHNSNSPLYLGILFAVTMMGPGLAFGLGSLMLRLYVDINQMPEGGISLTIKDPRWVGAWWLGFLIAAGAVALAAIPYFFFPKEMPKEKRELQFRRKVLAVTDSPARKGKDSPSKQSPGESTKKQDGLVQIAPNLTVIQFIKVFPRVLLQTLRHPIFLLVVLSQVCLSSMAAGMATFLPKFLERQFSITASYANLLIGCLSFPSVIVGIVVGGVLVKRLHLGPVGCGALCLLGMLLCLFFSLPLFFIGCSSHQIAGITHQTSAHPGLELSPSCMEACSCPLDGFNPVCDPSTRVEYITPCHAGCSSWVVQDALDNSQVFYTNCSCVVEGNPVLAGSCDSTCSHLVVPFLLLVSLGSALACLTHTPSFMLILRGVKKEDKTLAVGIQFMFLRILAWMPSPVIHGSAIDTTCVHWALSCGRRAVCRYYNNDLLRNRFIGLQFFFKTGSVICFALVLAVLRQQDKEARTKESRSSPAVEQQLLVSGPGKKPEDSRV
As to the kind of experiment: Cellular uptake assay: intracellular accumulation in HEK293-hOATP2B1 vs HEK293-MOCK cells (HPLC-MS/MS). The conditions noted are these: 0.25 μM, HBSS pH7.4, 37 °C, 20 min.

Data set [2] addresses T1, hOATP2B1. Nature of the data set: pH dependent uptake of morphine and M6G in HEK293-hOATP2B1 cells. The conditions noted are these: 0.25 μM, HBSS, 37 °C, 20 min.
Substrate in data set [3]: CN1CC[C@]23c4c5ccc(O)c4O[C@H]2[C@@H](O[C@@H]2O[C@H](C(=O)O)[C@@H](O)[C@H](O)[C@H]2O)C=C[C@H]3[C@H]1C5
Nature of the data set: cells, lysate or membranes named. To be noted: other: HEK293-hOATP2B1 cells, 0.25 to 100 μM, pH7.4, 37 °C, 20 min, pH 7.4.

Turning to `C[C@]12CC[C@@H]3c4ccc(OS(=O)(=O)[O-])cc4CC[C@H]3[C@@H]1CCC2=O.[Na+]` [E-3-S, estrone-3-sulfate sodium salt], the “increase of intracellular accumulation in HEK293-hOATP2B1 compared to HEK293-MOCK” value (shortened to “increase of intracellular accumulation”) on hOATP2B1 [1] was in the range of 2 to 3 fold.

Consider `CN1CC[C@]23c4c5ccc(O)c4O[C@H]2[C@@H](O[C@@H]2O[C@H](C(=O)O)[C@@H](O)[C@H](O)[C@H]2O)C=C[C@H]3[C@H]1C5` [M6G, morphine-6-glucuronide], for which the “increase of intracellular accumulation” value on hOATP2B1 [1] is “more than 2 fold”. For the same molecule, the intracellular accumulation at hOATP2B1 [1] (HEK293-MOCK cells) is 0.26 nM; on hOATP2B1 [1] (HEK293-hOATP2B1 cells), 0.71 nM. Also, the “concentration in HEK293-hOATP2B1 cells at pH6.0 relative to pH7.4” value at hOATP2B1 [2] is 2.05 fold.

Consider `CN1CC[C@]23c4c5ccc(O[C@@H]6O[C@H](C(=O)O)[C@@H](O)[C@H](O)[C@H]6O)c4O[C@H]2[C@@H](O)C=C[C@H]3[C@H]1C5` [M3G, morphine-3-glucuronide], for which the “increase of intracellular accumulation” value on hOATP2B1 [1] was “didn’t show any differences”.

Turning to `CC(C)n1c(/C=C/C(O)CC(O)CC(=O)O)c(-c2ccc(F)cc2)c2ccccc21` (centres unmarked) [fluvastatin], the “increase of intracellular accumulation” value at hOATP2B1 [1] was 2 to 3 fold.

B1: hOATP2B1 (Homo sapiens) (protein)
chain: MGPRIGPAGEVPQVPDKETKATMGTENTPGGKASPDPQDVRPSVFHNIKLFVLCHSLLQLAQLMISGYLKSSISTVEKRFGLSSQTSGLLASFNEVGNTALIVFVSYFGSRVHRPRMIGYGAILVALAGLLMTLPHFISEPYRYDNTSPEDMPQDFKASLCLPTTSAPASAPSNGNCSSYTETQHLSVVGIMFVAQTLLGVGGVPIQPFGISYIDDFAHNSNSPLYLGILFAVTMMGPGLAFGLGSLMLRLYVDINQMPEGGISLTIKDPRWVGAWWLGFLIAAGAVALAAIPYFFFPKEMPKEKRELQFRRKVLAVTDSPARKGKDSPSKQSPGESTKKQDGLVQIAPNLTVIQFIKVFPRVLLQTLRHPIFLLVVLSQVCLSSMAAGMATFLPKFLERQFSITASYANLLIGCLSFPSVIVGIVVGGVLVKRLHLGPVGCGALCLLGMLLCLFFSLPLFFIGCSSHQIAGITHQTSAHPGLELSPSCMEACSCPLDGFNPVCDPSTRVEYITPCHAGCSSWVVQDALDNSQVFYTNCSCVVEGNPVLAGSCDSTCSHLVVPFLLLVSLGSALACLTHTPSFMLILRGVKKEDKTLAVGIQFMFLRILAWMPSPVIHGSAIDTTCVHWALSCGRRAVCRYYNNDLLRNRFIGLQFFFKTGSVICFALVLAVLRQQDKEARTKESRSSPAVEQQLLVSGPGKKPEDSRV
In the case of B1, the Km (as a rule, the concentration of substrate that gives half-maximal velocity) in data set [3] came to 80.31 ± 21.75 µM.
